According to US5661129A, “Organic nitrates containing a disulfide group as cardiovascular agents” (Schwarz Pharma AG, priority 1993, dated 1997):

What was measured:
[1] = continuous intake of high doses; classical organic nitrates and EP compounds; cited from earlier work
[2] = system: isolated rat aortic rings; assay: Vasorelaxation in vitro on isolated rat aortic rings precontracted with phenylephrine; assay type: cell-based; conditions: rat aortic rings precontracted with 2×10^-7 mol/l phenylephrine; cumulative addition; n = 3-6; read-out: EC50 (concentration which leads to a 50% relaxation of the precontracted vascular ring)
From the text: The vasorelaxant effect of the compounds of the general formula I was investigated in vitro on isolated rat aortic rings. For this purpose, rats were anaesthetized and then the thoracic aorta was removed, freed of adipose and adventitious tissue and divided into annular segments about 5 mm wide. The aortic rings were transferred into temperature-controlled baths containing Tyrodes' solution through which 5% CO2 /95% O2 was passed, and were subjected to a preload of 2 g. While continuously recording the change in force, the vascular rings were precontracted after equilibration with 2×10^-7 mol/l phenylephrine for 90 minutes. After a stable contraction level was reached, the nitrato compounds were cumulatively added to the vessel bath liquid, the next higher concentration in each case being added only after a stable relaxation level had been reached. The concentration of the particular compound which leads to a 50% relaxation of the precontracted vascular ring (EC50) was found from the resulting concentration-effect plots. Table 1 contains the EC50 values found in this way for selected exemplary compounds.

[3] = system: arterial, central venous and pulmonary artery blood pressure in a conscious dog; assay: Effects on blood pressure in a conscious dog; assay type: in vivo; parameters: unit not given here; conditions: intravenous, 13.4 μg/kg disulphide compounds
Procedure: The SAP was measured using a tip catheter transducer inserted into the aorta via the femoral artery, and the CVP and the PAP were measured using a Swan-Ganz catheter which was inserted via the left jugular vein and whose catheter tips were advanced as far as the pulmonary artery and the right atrium respectively and through whose lumens the particular pressure was passed to Statham® pressure transducers. To quantify the lowering of blood pressure elicited by the compound according to the invention, the areas under the curves (AUC) of the recorded changes in blood pressure were determined. Table 2 contains the AUC values for the relevant lowering of blood pressure after intravenous administration of 13.4 μg/kg of the disulphide compounds according to the invention and after intravenous administration of 26.8 μg/kg isosorbide 5-mononitrate (5-ISMN).

Row | SMILES | nitrate tolerance (attenuation of the effect) [1] | EC50 [2] | AUC (CVP), lowering of central venous blood pressure [3] | AUC (PAP), lowering of pulmonary artery blood pressure [3] | AUC (SAP), lowering of systolic arterial blood pressure [3]
1 | O=[N+]([O-])O[C@@H]1CO[C@H]2[C@@H]1OC[C@@H]2O [Example 5-ISMN, isosorbide 5-mononitrate, reference compound] | distinct attenuation of the effect, nitrate tolerance |  |  |  | 
2 | CC(C)(C)OC(=O)[C@H](CSSC[C@H](NC(=O)C(C)(C)CO[N+](=O)[O-])C(=O)OC(C)(C)C)NC(=O)C(C)(C)CO[N+](=O)[O-] [N,N'-di(3-nitratopivaloyl)-L-cystine di-tert.-butyl ester] |  | 59 µM |  |  | 
3 | CCOC(=O)[C@H](CSSC[C@H](NC(=O)C(C)(C)CO[N+](=O)[O-])C(=O)OCC)NC(=O)C(C)(C)CO[N+](=O)[O-] [N,N'-di(3-nitratopivaloyl)-L-cystine diethyl ester] |  | 1.5 µM | 85.7 | 12.0 | 94.1
4 | CNC(=O)[C@H](CSSC[C@H](NC(=O)C(C)(C)CO[N+](=O)[O-])C(=O)NC)NC(=O)C(C)(C)CO[N+](=O)[O-] [N,N'-di(3-nitratopivaloyl)-L-cystine-di(N-methylamide)] |  | 24 µM | 33.7 | 3.5 | 41.9
5 | CC(C)(CO[N+](=O)[O-])C(=O)N[C@@H](CSSC[C@H](NC(=O)C(C)(C)CO[N+](=O)[O-])C(=O)O)C(=O)O [N,N'-di(3-nitratopivaloyl)-L-cystine] |  | 120 µM | 67.9 | 2.7 | 17.3
6 | CC(C)(CO[N+](=O)[O-])C(=O)N[C@@H](CSSC[C@H](NC(=O)C(C)(C)CO[N+](=O)[O-])C(N)=O)C(N)=O [N,N'-di(3-nitratopivaloyl)-L-cystinediamide] |  | 30 µM | 46.9 | 28.1 | 55.3
7 | CC(C)(CO[N+](=O)[O-])C(=O)N[C@@H](CSSC[C@H](NC(=O)C(C)(C)CO[N+](=O)[O-])C(=O)N1CCCCC1)C(=O)N1CCCCC1 [N,N'-di(3-nitratopivaloyl)-L-cystinedipiperidide] |  | 100 µM | 36.9 | 18.5 | 10.4
8 | O=[N+]([O-])OCC(CO[N+](=O)[O-])O[N+](=O)[O-] [glycerol trinitrate] | distinct attenuation of the effect, nitrate tolerance |  |  |  | 
